Assay results published in ChEMBL document CHEMBL1131859, “Conformationally restricted paclitaxel analogues: macrocyclic mimics of the "hydrophobic collapse" conformation” (1999).
The source made the active and inactive calls. No cut-off for these calls is given here.

Experiments:
[1] = Tested for activity using microtubule assembly assay expressed as the ED50 to that of ED50 of paclitaxel; In active; assay type: functional
B16 [2] = test: Tested for cytotoxicity against B16 melanoma cells expressed as the ED50 to that of ED50 of paclitaxel; In active; assay type: functional, cell-based; conditions: Mus musculus
[3] = Inhibitory activity against microtubule assembly stimulated by paclitaxel (1 uM) at a concentration of 20 uM of the compound; No inhibition; assay type: functional
[4] = Tested for activity using microtubule assembly assay expressed as the ED50 to that of ED50 of paclitaxel.; assay type: functional
B16 [5] = test: Tested for cytotoxicity against B16 melanoma cells expressed as the ED50 to that of ED50 of paclitaxel.; assay type: functional, Mus musculus

## CC(=O)O[C@H]1C(=O)[C@@]2(C)[C@H]([C@H](OC(=O)c3ccccc3)[C@]3(O)CC(OC(=O)/C=C(\NC(=O)c4ccccc4)c4cccc(I)c4)C(C)=C1C3(C)C)[C@]1(OC(C)=O)CO[C@@H]1C[C@@H]2O (stereo not given in full)
[1]
  Ratio: inactive
B16 [2]
  Ratio: inactive

## CC(=O)O[C@H]1C(=O)[C@@]2(C)[C@H]([C@@H]3OC(=O)c4cccc(c4)/C=C\c4ccccc4[C@H](NC(=O)c4ccccc4)[C@@H](O)C(=O)OC4C[C@]3(O)C(C)(C)C1=C4C)[C@]1(OC(C)=O)CO[C@@H]1C[C@@H]2O
[3]
  Ratio: inactive

## CC(=O)O[C@H]1C(=O)[C@@]2(C)[C@H]([C@H](OC(=O)c3ccccc3)[C@]3(O)CC(OC(=O)[C@H](O[Si](C)(C)C(C)(C)C)[C@@H](NC(=O)c4ccccc4)c4cccc(I)c4)C(C)=C1C3(C)C)[C@]1(OC(C)=O)CO[C@@H]1C[C@@H]2O (stereo not given in full)
[4]
  Ratio: 4.6
B16 [5]
  Ratio: 27
